Data from patent publication US10966961B2, “Pyrazole derivatives as bromodomain inhibitors” (GLAXOSMITHKLINE INTELLECTUAL PROPERTY (NO.2) LIMITED, priority 2017, dated 2021).

Target: T1, BRD4 BD2 (Homo sapiens, UniProt O60885, Y97A)
T1 construct: BRD4 (1-477) (Y97A) and (Y390A); made in house; host or cells: E. coli (pET15b vector)
Assay: BRD4 BD2 TR-FRET competition assay
Assay type: binding
Conditions: BRD4 BD2 TR-FRET; read-out: pIC50 in the BRD4 BD2 assay (converted)
Experimental: Time Resolved Fluorescence Resonance Energy Transfer (TR-FRET) assay
Bromodomain binding was assessed utilising a time resolved fluorescent resonance energy transfer (TR-FRET) competition assay. To enable this approach a known, high affinity, pan-BET interacting small molecule was labelled with Alexa Fluor® 647, which is a far-red-fluorescent dye (Reference Compound X). Reference Compound X acts as a reporter of bromodomain binding and is the acceptor fluorophore component of the TR-FRET pair. Europium chelate, conjugated to an anti-6*His antibody, was utilised as the donor fluorophore in the TR-FRET pair. […] A TR-FRET signal is generated when the donor and acceptor fluorophores are in close proximity, between 20-80 Å, which is enabled in this assay by binding of Reference Compound X to the bromodomain protein.
Assay Principle: In order to generate a TR-FRET signal, donor fluorophore is excited by a laser at A337 nm, which subsequently leads to emission at λ618 nm. If the acceptor fluorophore is in close proximity then energy transfer can occur, which leads to emission of Alexa Fluor® 647 at λ665 nm. In the presence of competitor compound, Reference Compound X can be displaced from binding to the bromodomain. If displacement occurs, the acceptor fluorophore is no longer in proximity to the donor fluorophore, which prevents fluorescent energy transfer and, subsequently, a loss of Alexa Fluor® 647 emission at λ665 nm.
(§1) The competition of the compounds of formula (I) with Reference Compound X for binding to the BET family (BRD2, BRD3, BRD4 and BRDT) was assessed using protein truncates spanning both bromodomain 1 (BD1) and bromodomain 2 (BD2). In order to monitor differential binding to either BD1 or BD2, single residue mutations of key tyrosines to alanine were made in the acetyl lysine binding pockets. To validate this approach, a double residue mutant tandem domain protein was produced for each of the BET family members. Utilising a Fluorescence Polarisation approach, binding affinities for each of the single and double mutants for Reference Compound X were determined.
Final purification was completed by Superdex 200 prep grade size exclusion column. Purified protein was stored at −80° C. in 20 mM HEPES pH 7.5 and 100 mM NaCl. […] Protocol for Bromodomain BRD2, 3, 4 and T, BD1+BD2 mutant TR-FRET competition assays:
All assay components were dissolved in an assay buffer composing of 50 mM HEPES pH7.4, 50 mM NaCl, 5% Glycerol, 1 mM DTT and 1 mM CHAPS. Reference Compound X was diluted, in assay buffer containing 20 nM single mutant, tandem bromodomain protein, to a concentration equivalent to 2*Kd for this bromodomain. The solution containing bromodomain and Reference Compound X was added to dose response dilutions of test compound or DMSO vehicle (a maximum of 0.5% DMSO is used in this assay) in Greiner 384 well black low volume microtitre plates and subsequently incubated for 30 minutes at rt. An equal volume of 3 nM of anti-6*His Europium chelate was added to all wells, followed by a further 30 minute incubation at rt. TR-FRET was detected using a Perkin Elmer Multimode plate reader, by exciting the donor fluorophore at λ337 nm and subsequently, after a delay of 50 μsecs, measuring emission of the donor and acceptor fluorophores at λ615 nm and λ665 nm, respectively. In order to control these assays, 16 replicates each of uninhibited (DMSO vehicle) and inhibited (10*IC50 concentrations of Example 11 of WO 2011/054846A1) TR-FRET assays were included on every microtitre plate.
cA four parameter curve fit of the following form was then applied: y=a+((b−a)/(1+(10^x/10^c)^d)
Where ‘a’ is the minimum, ‘H’ is the Hill slope, ‘c’ is the pIC50 and ‘d’ is the maximum.
All compounds (Examples) were each tested in the BRD4 BD1 and the BRD4 BD2 TR-FRET assays essentially as described above. Those of skill in the art will recognise that in vitro binding assays and cell-based assays for functional activity are subject to experimental variability.

SMILES | IC50 [µM]
CNC(=O)c1cc(C(=O)N[C@H]2[C@@H]3COC[C@@H]32)n([C@@H](C)c2ccccc2)n1 [Example 1, N^5-((1R,5S,6r)-3-Oxabicyclo[3.1.0]hexan-6-yl)-N^3-methyl-1-((S)-1-phenylethyl)-1H-pyrazole-3,5-dicarboxamide] | 0.0631
CNC(=O)c1cc(C(=O)NC)n(Cc2ccccc2)n1 [Example 94, 1-Benzyl-N^3,N^5-dimethyl-1H-pyrazole-3,5-dicarboxamide] | 1 to 10
CNC(=O)c1cc(C(=O)NC(C)C)n(Cc2ccccc2)n1 [Example 96, 1-Benzyl-N^5-isopropyl-N^3-methyl-1H-pyrazole-3,5-dicarboxamide] | 1 to 10
CNC(=O)c1cc(C(=O)NC2CC2)n(Cc2ccc(C#N)cc2)n1 [Example 102, 1-(4-Cyanobenzyl)-N^5-cyclopropyl-N^3-methyl-1H-pyrazole-3,5-dicarboxamide] | 1 to 10
CNC(=O)c1cc(C(=O)NC2CC2)n(Cc2ccccc2OC)n1 [Example 106, N^5-Cyclopropyl-1-(2-methoxybenzyl)-N^3-methyl-1H-pyrazole-3,5-dicarboxamide] | 1 to 10
CCNC(=O)c1cc(C(=O)N[C@H]2CC[C@H](O)CC2)n([C@@H](C)c2ccccc2)n1 [Example 108, N^3-Ethyl-N^5-((1r,4S)-4-hydroxycyclohexyl)-1-((S)-1-phenylethyl)-1H-pyrazole-3,5-dicarboxamide] | 1 to 10
CNC(=O)c1cc(C(=O)N[C@H]2[C@@H]3COC[C@@H]32)n([C@H](C)c2ccccc2)n1 [Example 109, N^5-((1R,5S,6r)-3-Oxabicyclo[3.1.0]hexan-6-yl)-N^3-methyl-1-((R)-1-phenylethyl)-1H-pyrazole-3,5-dicarboxamide] | 1 to 10
CNC(=O)c1cc(C(=O)NC(C)(C)C)n([C@@H](C)c2ccccc2)n1 [Example 112, (S)-N^5-(tert-Butyl)-N^3-methyl-1-(1-phenylethyl)-1H-pyrazole-3,5-dicarboxamide] | 1 to 10
CNC(=O)c1cc(C(=O)N[C@H]2[C@@H]3COC[C@@H]32)n([C@H](C)c2cccc3[nH]ccc23)n1 [Example 132, 1-((R)-1-(1H-Indol-4-yl)ethyl)-N^5-((1R,5S,6r)-3-oxabicyclo[3.1.0]hexan-6-yl)-N^3-methyl-1H-pyrazole-3,5-dicarboxamide] | 1 to 10
CNC(=O)c1cc(C(=O)N[C@H]2C[C@@H]2C)n(C(C)c2ccnc3c2ccn3S(=O)(=O)c2ccc(C)cc2)n1 (stereo partly drawn) [Example 135, N^3-Methyl-N^5-((1S,2S)-2-methylcyclopropyl)-1-(1-(1-tosyl-1H-pyrrolo[2,3-b]pyridin-4-yl)ethyl)-1H-pyrazole-3,5-dicarboxamide] | 1 to 10

Next, values leading:

IC50 [µM] | SMILES
1 to 10 | CNC(=O)c1cc(C(=O)N[C@H]2[C@@H]3COC[C@@H]32)n([C@@H](C)c2ccccc2OC)n1 [Example 136, N^5-((1R,5S,6r)-3-Oxabicyclo[3.1.0]hexan-6-yl)-1-((S)-1-(2-methoxyphenyl)ethyl)-N^3-methyl-1H-pyrazole-3,5-dicarboxamide]
1 to 10 | CNC(=O)c1cc(C(=O)N[C@H]2C[C@@H]2C)n([C@H](C)c2ccnc3[nH]ccc23)n1 [Example 137, 1-((R)-1-(1H-Pyrrolo[2,3-b]pyridin-4-yl)ethyl)-N^3-methyl-N^5-((1S,2S)-2-methylcyclopropyl)-1H-pyrazole-3,5-dicarboxamide]
1 to 10 | CNC(=O)c1cc(C(=O)N[C@H]2[C@@H]3C[C@@H](O)C[C@@H]32)n([C@H](C)c2ccc(C(F)(F)F)cc2)n1 [Example 229]
1 to 10 | CNC(=O)c1cc(C(=O)NC2CC2)nn1Cc1ccc2[nH]ccc2c1 [Example 233]
1 to 10 | CNC(=O)c1cc(C(=O)NC2CC2)nn1Cc1cccc2[nH]ccc12 [Example 234]
1 to 10 | CNC(=O)c1cc(C(=O)N[C@@H]2C[C@@H](C)[C@H](O)[C@@H](C)C2)n([C@@H](C)c2ccccc2)n1 [Example 236]
1 to 10 | CNC(=O)c1cc(C(=O)N[C@H]2[C@@H]3COC[C@@H]32)n([C@H](C)c2ccc(Cl)c(F)c2)n1 [Example 237]
1 to 10 | CNC(=O)c1cc(C(=O)N[C@H]2[C@@H]3C[C@H](O)C[C@@H]32)n([C@H](C)c2cccc(C(F)(F)F)c2)n1 [Example 238]
1 to 10 | CNC(=O)c1cc(C(=O)Nc2onc(C)c2C#N)n([C@@H](C)c2ccccc2)n1 [Example 239]
1 to 10 | CNC(=O)c1cc(C(=O)Nc2nnc(C(F)(F)F)s2)n([C@@H](C)c2ccccc2)n1 [Example 240]
1 to 10 | CNC(=O)c1cc(C(=O)NC2[C@H]3C[C@H](O)C[C@@H]23)n([C@H](C)c2cccc(C(F)(F)F)c2)n1 (stereo partly drawn) [Example 241]
1 to 10 | CNC(=O)c1cc(C(=O)Nc2c(C)noc2C)n([C@@H](C)c2ccccc2)n1 [Example 248]

Same assay, conditions: BRD4 BD2 pIC50 − BRD4 BD1 pIC50; in at least one of the TR-FRET assays

selectivity for BRD4 BD2 over BRD4 BD1 [log units] | SMILES
2.8 | CNC(=O)c1cc(C(=O)N[C@H]2[C@@H]3COC[C@@H]32)n([C@@H](C)c2ccccc2)n1 [Example 1, N^5-((1R,5S,6r)-3-Oxabicyclo[3.1.0]hexan-6-yl)-N^3-methyl-1-((S)-1-phenylethyl)-1H-pyrazole-3,5-dicarboxamide]

System: double residue mutant tandem domain BET proteins (BRD2, BRD3, BRD4 and BRDT)
Assay: Fluorescence Polarisation binding of Reference Compound X to mutant tandem BET proteins
Set-up: species or system Human
Conditions: double mutant vs non mutated tandem BET proteins
Experimental: as §1, with “determined. […] The affinities of the single mutated bromdomain tandem proteins for Reference Compound X were equi-potent with the corresponding non-mutated BET protein. […] In the TR-FRET competition assay, Reference Compound X is used at a concentration that is equivalent to the Kd for the non-mutated bromodomain, which ensures that no binding at the mutated bromodomain is detected. […]” for “determined.”

SMILES | reduction in Kd (affinity) of double mutant tandem proteins versus wild type tandem BET proteins [fold]
COc1ccc2c(c1)C(c1ccc(Cl)cc1)=N[C@@H](CC(=O)NCCCCCNC(=O)CCCCCC1(C)/C(=C/C=C/C=C/C3=[N+](CCCCS(=O)(=O)O)c4ccc(S(=O)(=O)O)cc4C3(C)C)N(CCCCS(=O)(=O)[O-])c3ccc(S(=O)(=O)O)cc31)c1nnc(C)n1-2 (stereo partly drawn) [Reference Compound X] | > 1000
